Assay results reported in patent publication US20150275313A1, “MARKER FOR DIAGNOSIS OF BLADDER CANCER RECURRENCE” (Dong-A University Research Foundation For Industry-Academy …, priority 2014, published 2015).

Legend:
Assay type in all cases: cell-based
[1] = system: invasive cell lines (5637, EJ); test: Cell viability of bladder cancer cell lines treated with doxorubicin; conditions: invasive cell lines (5637, EJ) compared with non-muscle invasive cell lines (UC5, UC9); doxorubicin 0 to 50 μM for 12 hours or 24 hours; FIG. 9A
[2] = system: FOXM1 and CCNB1 genes; test: Expression of FOXM1 and CCNB1 genes in bladder cancer cell lines treated with doxorubicin; conditions: invasive cell lines (5637, EJ); doxorubicin 0 to 50 μM for 12 hours or 24 hours; FIG. 9B
Method: (§1) Further, the inventors of the present disclosure studied expression of FOXM1, CCNB1 genes, and FANCB, FANCC, and FANCD2 genes relevant to Fanconi anemia pathways after non-muscle invasive cell lines (UC5, UC9) and invasive cell lines (5637, EJ) were treated with doxorubicin used as an anticancer drug for bladder cancer at a concentration of 0 to 50 μM for 12 hours or 24 hours.

[3] = system: FANCB, FANCC, and FANCD2 genes; test: Expression of DNA repair genes in bladder cancer cell lines treated with doxorubicin; conditions: non-muscle invasive cell lines (UC5, UC9) and invasive cell lines (5637, EJ); doxorubicin 0 to 50 μM for 12 hours or 24 hours; FIG. 9C
Method: as §1
Furthermore, in the non-muscle invasive cell lines (UC5, UC9) and invasive cell lines (5637, EJ) treated as described above, expression of the genes relevant to DNA repair was checked.

COc1cccc2c1C(=O)c1c(O)c3c(c(O)c1C2=O)C[C@@](O)(C(=O)CO)C[C@@H]3O[C@H]1C[C@H](N)[C@H](O)[C@H](C)O1 [doxorubicin]
high: cell viability [1] | expression of FOXM1 and CCNB1 genes [2] | expression of the FANCB, FANCC, and FANCD2 genes relevant to Fanconi anemia pathways [3]
